# Reference: PubChem BioAssay AID1259371 (The Scripps Research Institute Molecular Screening Center, 2018)
# Active and inactive are the calls of the source. How the calls were made is not given here.
# Target: Microphthalmia-associated transcription factor (Homo sapiens) (UniProt O75030)
# Assay: MITF inhibitors, potency by titration, dose response, biochemical, AlphaScreen, human (AID 1259371)
# Conditions: AlphaScreen biochemical MITF assay, signal inhibition
# Chain of Microphthalmia-associated transcription factor (Homo sapiens) (O75030 whole entry, looked up): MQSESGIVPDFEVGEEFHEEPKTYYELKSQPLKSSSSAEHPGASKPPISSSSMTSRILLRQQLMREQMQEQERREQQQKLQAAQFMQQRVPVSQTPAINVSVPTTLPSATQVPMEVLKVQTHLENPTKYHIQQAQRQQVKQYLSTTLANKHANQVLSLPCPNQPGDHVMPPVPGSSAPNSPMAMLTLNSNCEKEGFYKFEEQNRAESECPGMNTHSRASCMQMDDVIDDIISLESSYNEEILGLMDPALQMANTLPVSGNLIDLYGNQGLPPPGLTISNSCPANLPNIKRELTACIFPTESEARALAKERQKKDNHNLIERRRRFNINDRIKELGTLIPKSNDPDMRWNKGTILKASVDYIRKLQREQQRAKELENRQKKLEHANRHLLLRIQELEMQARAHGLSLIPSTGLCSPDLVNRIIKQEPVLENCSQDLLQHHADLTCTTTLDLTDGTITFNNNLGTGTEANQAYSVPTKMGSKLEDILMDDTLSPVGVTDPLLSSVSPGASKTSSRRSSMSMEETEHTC
row,SMILES,IC50
1,Clc1ccc2c(c1)CC(c1nc(Nc3cncnc3)c3ccccc3n1)CO2 (centres undefined),inactive
2,CN(C)CCS(=O)c1cc(-c2cn[nH]c2)ccc1NC(=O)[C@H]1Cc2cc(F)ccc2CN1 (some centres undefined),inactive
3,CC[C@@H]1NC(=O)[C@H]2CN(C(=O)NC3CCCCC3)CCN2C1=O,270 nM
4,OCCNc1cc(-c2cccs2)ncn1,inactive
5,Cc1n[nH]c(=O)nc1NNc1ccc(C(=O)O)cc1,inactive
6,C=CCNC(=O)COC(=O)c1cc(-c2ccco2)nc2ccccc12,> 2310 nM (inactive)
7,NC(=O)n1c(CCC(=O)O)nc2sc3c(c2c1=O)CCC3,211 nM
8,O=C1CCCC2=C1C(c1ccc([N+](=O)[O-])o1)C1=C(CCCC1=O)O2,inactive
9,CCC[C@@H]1NC(=O)[C@H]2CN(C(=O)NC3CCCCC3)CCN2C1=O,757 nM
10,CC(C)(C)OC(=O)N1C(C(=O)O)CSC1c1cc2c(cc1[N+](=O)[O-])OCO2 (centres undefined),916 nM
11,N#Cc1cc([N+](=O)[O-])ccc1NC(=O)COC(=O)c1cc(-c2ccco2)nc2ccccc12,inactive
12,CCOC1=CC(c2ccc3c(c2)OCO3)CC(=O)c2c(C)oc(C)c21 (centres undefined),> 6480 nM (inactive)
13,OC[C@H]1OC([S-])[C@H](O)[C@@H](O)[C@@H]1O.[Au+] (some centres undefined),inactive
14,O=C1N[C@H](Cc2ccc(O)cc2)C(=O)N2CCN(C(=O)NC3CCCCC3)C[C@H]12,> 2160 nM (inactive)
15,C=CCc1cc(C)ccc1OCCCCn1ccnc1,> 6480 nM (inactive)
16,O=C(OC1(C(F)(F)F)C(=O)Nc2cc3c(cc21)OCO3)c1ccc(Cl)nc1 (centres undefined),179 nM
17,CN1CCN(C(=O)c2ccc(-c3nc(Nc4ccccc4)c4ncn(C5CCCCC5)c4n3)cc2)CC1,> 7630 nM (inactive)
18,O=C(O)c1coc(CNC(=O)c2cocc2C(=O)O)c1,inactive
19,Nc1ccc(C(=O)O)c(O)c1,63.5 nM
20,O=S(=O)(O)c1ccc(N/N=C2\CCc3ccccc32)cc1,> 2160 nM (inactive)
21,COCCCNC(=O)/C(C#N)=C/c1ccc(-c2ccc(C(=O)O)c(Cl)c2)o1,inactive
22,O=C(Nc1ccc(N2CCOCC2)cc1)c1ccc2nc(Nc3ccccn3)sc2c1,537 nM
23,COC(C)(C)CNC(=O)C1CCN(C2CCN(Cc3cccc(C)n3)CC2)CC1,inactive
24,CN(C)CCCNC(=O)c1cccc(CN(C(=O)c2nc3ccc(-c4cn[nH]c4)cc3s2)C2CC2)c1,inactive
25,O=C(O)CCCNC(=O)/C=C/c1ccco1,> 2160 nM (inactive)

row,SMILES,IC50
1,O=C(O)c1cc(-c2ccco2)nc2ccccc12,inactive
2,O=C(NNC(=O)c1cc(-c2ccco2)nc2ccccc12)NC1CCCCC1,126 nM
3,O=C(O)c1cc(S(=O)(=O)Nc2ccc3cn[nH]c3c2)ccc1O,inactive
4,Cc1ccc(-c2ncn(-c3ccc(Nc4cc(-n5cnc(Nc6ccccc6)n5)c(F)cn4)cc3)n2)cn1,inactive
5,CN1CC[C@H](Oc2cc(-c3cn[nH]c3)ccc2NC(=O)OCc2ccccc2)C1,inactive
6,C[C@H]1NC(=O)[C@H]2CN(C(=O)NCc3ccccc3)CCN2C1=O,inactive
7,N#CC1=C(N)n2c(s/c(=C\c3ccco3)c2=O)=C(C#N)C1c1ccco1 (centres undefined),3.85 nM
8,O=C1OC(c2ccc(Cl)cc2Cl)=N/C1=C\c1ccc([N+](=O)[O-])o1,inactive
9,CCCCCCCCCCCCCCCC(=O)OC[C@H](O)[C@H]1OC(=O)C(=O)C1O (some centres undefined),inactive
10,C[C@H](O)[C@H]1NC(=O)[C@H]2CN(C(=O)NCc3ccccc3)CCN2C1=O,inactive
11,Cc1ccc(C)n1C(CC(=O)O)c1ccsc1 (centres undefined),255 nM
12,O=c1[nH]cnc2nc(-c3ccco3)c(-c3ccco3)nc12,79.7 nM
13,CCOc1ccccc1N1CCN(Cc2cc(OC)c(O)c([N+](=O)[O-])c2)CC1,> 6480 nM (inactive)
14,Cc1nnc(CNC(=O)c2ccc(-n3cccc3)cc2)o1,inactive
15,O=[N+]([O-])c1cc(C=Nc2ccc(N3CCOCC3)cc2)c(O)c([N+](=O)[O-])c1,753 nM
16,O=C(COC(=O)/C=C/c1ccco1)NCc1ccco1,393 nM
17,CC(C)[C@H]1NC(=O)[C@H]2CN(C(=O)NCc3ccccc3)CCN2C1=O,inactive
18,S=c1[nH]nc(-c2ccco2)n1/N=C/C=C/c1ccco1,5.3 nM
19,CN(C)c1ccc(NC(=O)CSc2ncccc2C(=O)O)cc1,inactive
20,COc1nccnc1NS(=O)(=O)c1ccc(NC(=O)c2ccc([N+](=O)[O-])c(C)c2)cc1,> 6480 nM (inactive)
21,O=[N+]([O-])c1ccc(N/N=C/c2ccco2)c(S(=O)(=O)N2CCOCC2)c1,inactive
22,Cc1ccc2[nH]c(=O)c(=O)[nH]c2c1,> 12100 nM (inactive)
23,CC1=C/C(=N\N=C2\NC(=O)C(CC(=O)Nc3ccc(C(=O)O)cc3)S2)CC(C)(C)C1 (centres undefined),334 nM
24,CC1=NC(=S)C2C(=O)O/C(=C/c3ccc(-c4cccc([N+](=O)[O-])c4)o3)C2=C1 (centres undefined),inactive
25,C/C(=N\NC(=O)CC1=NNC(=O)C1)c1ccco1,inactive

row,SMILES,IC50
1,O=C1S/C(=C\c2ccco2)C(=O)N1c1ccccc1Cl,809 nM
2,C=CC1=C(C)C2=Cc3c(C=C)c(C)c4[n]3[Sn+2][n]3c(c(C)c(CCC(=O)O)c3=CC3=NC(=C4)C(C)=C3CCC(=O)O)=CC1=N2,inactive
3,Cc1ccc(CCC(=O)Nc2ccc(-c3cn4c5c(nnc4n3)CCCC5)cc2)o1,306 nM
4,COCCCNC(=O)/C(C#N)=C/c1ccc(OCC(=O)O)c(OC)c1,inactive
5,O=C(NCc1cccnc1)c1ccnc(-c2cccs2)c1,inactive
6,O=C(CCCCC1SCC2NC(=O)NC21)NC1(c2ccc3c(c2)OCO3)CCCC1 (centres undefined),inactive
7,NC(=O)c1cncc(-c2cccs2)c1,321 nM
8,Cc1cc2c(c(=O)[nH]1)C(=O)O/C2=C\c1ccc(C)o1,333 nM
9,O=C(NC1CCCCC1)N1CCN2C(=O)[C@@H]3CCCN3C(=O)[C@H]2C1,inactive
10,COc1ccc(S(=O)(=O)CCC(=O)Nc2nc3ccc(OC)cc3s2)cc1,> 4550 nM (inactive)
11,N#CC(C#N)=Cc1cccn1-c1ccc(C(=O)O)cc1,inactive
12,O=C(NC1CCCCC1)N1CCN2C(=O)[C@H]3CCCN3C(=O)[C@H]2C1,467 nM
13,Cc1ccccc1/C=C1\N=C(c2cc(C3=N/C(=C/c4ccccc4C)C(=O)O3)cc(C3=N/C(=C/c4ccccc4C)C(=O)O3)c2)OC1=O,inactive
14,O=c1c(O)c(-c2ccc(O)cc2O)oc2cc(O)cc(O)c12,inactive
15,C/C=C\C1=C(C(=O)O)N2C(=O)C(NC(=O)C(N)c3ccc(O)cc3)C2SC1 (centres undefined),> 6480 nM (inactive)
16,C[C@@H](O)[C@@H]1NC(=O)[C@H]2CN(C(=O)NC3CCCCC3)CCN2C1=O,inactive
17,C=CCc1cc(Cl)ccc1OCCOCCNCCOC,> 6480 nM (inactive)
18,Cc1cc(CSC(=N)N)c(O)c(C)n1,533 nM
19,N#Cc1c(-c2ccco2)cc(-c2ccco2)nc1N,20 nM
20,O=C(NC1CCCCC1)N1CCN2C(=O)[C@@H]3CSCN3C(=O)[C@H]2C1,inactive
21,CCN(C(=O)C1COc2ccccc2O1)C12CC3CC(CC(C3)C1)C2 (centres undefined),inactive
22,O=C(OCCCC(=O)N1CCOCC1)c1cc(-c2ccco2)nc2ccccc12,inactive
23,CN(C)/C=C/C=C/C=C/C(=O)c1ccc(C(=O)/C=C/C=C/C=C/N(C)C)cc1,96.7 nM
24,COc1cc(/C=C2\C(C)=C([N+](=O)[O-])CS2(=O)=O)ccc1O,30.8 nM
